Experimental data from patent publication US11117892B2, “Pyrrolo-pyridine derivative compound, method for preparing same, and pharmaceutical composition containing same as active ingredient for prevention or treatment of protein kinase-related diseases” (DAEGU-GYEONGBUK MEDICAL INNOVATION FOUNDATION, priority 2017, dated 2021).

Columns and labels:
Test in all cases: scanMAX Kinase assay panel
Type in all cases: binding
[1] = biological target: NEK10 (Homo sapiens (Human), UniProt Q6ZWH5); details: read-out: % control
Method in brief: (§1)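 Using scanMAX, compound selectivity across kinases is determined. The output is % control, bounded by a DMSO control at 100% and a reference positive compound at 0%.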

[2] = biological target: DCAMKL1 (Homo sapiens (Human), UniProt O15075); details: read-out: % control
Method in brief: as §1

[3] = biological target: ACVR1B (Homo sapiens (Human), UniProt P36896); details: read-out: % control
Method in brief: as §1

[4] = biological target: ULK1 (Homo sapiens (Human), UniProt O75385); details: read-out: % control
Method in brief: as §1

[5] = biological target: FGR (Homo sapiens (Human), UniProt P09769); details: read-out: % control
Method in brief: as §1

[6] = biological target: CSNK1G3 (Homo sapiens (Human), UniProt Q9Y6M4); details: read-out: % control
Method in brief: as §1

[7] = biological target: PIP5K2C (Homo sapiens (Human), UniProt Q8TBX8); details: read-out: % control
Method in brief: as §1

[8] = biological target: EPHA3 (Homo sapiens (Human), UniProt P29320); details: read-out: % control
Method in brief: as §1

[9] = biological target: STK16 (Homo sapiens (Human), UniProt O75716); details: read-out: % control
Method in brief: as §1

[10] = biological target: RSK3(Kin.Dom.2-C-terminal) (Homo sapiens (Human), UniProt Q15349); details: read-out: % control
Method in brief: as §1

[11] = biological target: PFTK1 (Homo sapiens (Human), UniProt O94921); details: read-out: % control
Method in brief: as §1

[12] = test system: FLT3(ITD); details: 1 uM
Method in brief: as §1

[13] = biological target: STK33 (Homo sapiens (Human), UniProt Q9BYT3); details: read-out: % control
Method in brief: as §1

[14] = biological target: DMPK2 (Homo sapiens (Human), UniProt Q6DT37); details: read-out: % control
Method in brief: as §1

[15] = biological target: FER (Homo sapiens (Human), UniProt P16591); details: read-out: % control
Method in brief: as §1

[16] = biological target: MYLK4 (Homo sapiens (Human), UniProt Q86YV6); details: read-out: % control
Method in brief: as §1

[17] = biological target: MEK2 (Homo sapiens (Human), UniProt P36507); details: read-out: % control
Method in brief: as §1

[18] = biological target: NEK6 (Homo sapiens (Human), UniProt Q9HC98); details: read-out: % control
Method in brief: as §1

[19] = biological target: IKK-beta (Homo sapiens (Human), UniProt O14920); details: read-out: % control
Method in brief: as §1

[20] = biological target: LKB1 (Homo sapiens (Human), UniProt Q15831); details: read-out: % control
Method in brief: as §1

[21] = biological target: PIK3CA(Q546K) (Homo sapiens (Human), UniProt P42336, Q546K); details: read-out: % control
Method in brief: as §1

[22] = biological target: AURKC (Homo sapiens (Human), UniProt Q9UQB9); details: read-out: % control
Method in brief: as §1

[23] = biological target: DRAK2 (Homo sapiens (Human), UniProt O94768); details: read-out: % control
Method in brief: as §1

[24] = biological target: TYK2(JH2domain-pseudokinase) (Homo sapiens (Human), UniProt P29597); details: read-out: % control
Method in brief: as §1

[25] = biological target: WNK1 (Homo sapiens (Human), UniProt Q9H4A3); details: read-out: % control
Method in brief: as §1

[26] = biological target: SgK110 (Homo sapiens (Human), UniProt P0C264); details: read-out: % control
Method in brief: as §1

[27] = biological target: GRK2 (Homo sapiens (Human), UniProt P25098); details: read-out: % control
Method in brief: as §1

[28] = biological target: DDR1 (Homo sapiens (Human), UniProt Q08345); details: read-out: % control
Method in brief: as §1

[29] = biological target: NEK9 (Homo sapiens (Human), UniProt Q8TD19); details: read-out: % control
Method in brief: as §1

[30] = biological target: EGFR(L747-S752del, P753S) (Homo sapiens (Human), UniProt P00533, DEL747-752/P753S); details: read-out: % control
Method in brief: as §1

[31] = biological target: MTOR (Homo sapiens (Human), UniProt P42345); details: read-out: % control
Method in brief: as §1

[32] = biological target: DCAMKL3 (Homo sapiens (Human), UniProt Q9C098); details: read-out: % control
Method in brief: as §1

[33] = biological target: MRCKA (Homo sapiens (Human), UniProt Q5VT25); details: read-out: % control
Method in brief: as §1

[34] = biological target: TESK1 (Homo sapiens (Human), UniProt Q15569); details: read-out: % control
Method in brief: as §1

[35] = biological target: CIT (Homo sapiens (Human), UniProt O14578); details: read-out: % control
Method in brief: as §1

[36] = biological target: RIOK3 (Homo sapiens (Human), UniProt O14730); details: read-out: % control
Method in brief: as §1

[37] = biological target: LCK (Homo sapiens (Human), UniProt P06239); details: read-out: % control
Method in brief: as §1

[38] = biological target: CDK8 (Homo sapiens (Human), UniProt P49336); details: read-out: % control
Method in brief: as §1

[39] = biological target: PAK4 (Homo sapiens (Human), UniProt O96013); details: read-out: % control
Method in brief: as §1

Sequence of CIT (O14578 whole entry): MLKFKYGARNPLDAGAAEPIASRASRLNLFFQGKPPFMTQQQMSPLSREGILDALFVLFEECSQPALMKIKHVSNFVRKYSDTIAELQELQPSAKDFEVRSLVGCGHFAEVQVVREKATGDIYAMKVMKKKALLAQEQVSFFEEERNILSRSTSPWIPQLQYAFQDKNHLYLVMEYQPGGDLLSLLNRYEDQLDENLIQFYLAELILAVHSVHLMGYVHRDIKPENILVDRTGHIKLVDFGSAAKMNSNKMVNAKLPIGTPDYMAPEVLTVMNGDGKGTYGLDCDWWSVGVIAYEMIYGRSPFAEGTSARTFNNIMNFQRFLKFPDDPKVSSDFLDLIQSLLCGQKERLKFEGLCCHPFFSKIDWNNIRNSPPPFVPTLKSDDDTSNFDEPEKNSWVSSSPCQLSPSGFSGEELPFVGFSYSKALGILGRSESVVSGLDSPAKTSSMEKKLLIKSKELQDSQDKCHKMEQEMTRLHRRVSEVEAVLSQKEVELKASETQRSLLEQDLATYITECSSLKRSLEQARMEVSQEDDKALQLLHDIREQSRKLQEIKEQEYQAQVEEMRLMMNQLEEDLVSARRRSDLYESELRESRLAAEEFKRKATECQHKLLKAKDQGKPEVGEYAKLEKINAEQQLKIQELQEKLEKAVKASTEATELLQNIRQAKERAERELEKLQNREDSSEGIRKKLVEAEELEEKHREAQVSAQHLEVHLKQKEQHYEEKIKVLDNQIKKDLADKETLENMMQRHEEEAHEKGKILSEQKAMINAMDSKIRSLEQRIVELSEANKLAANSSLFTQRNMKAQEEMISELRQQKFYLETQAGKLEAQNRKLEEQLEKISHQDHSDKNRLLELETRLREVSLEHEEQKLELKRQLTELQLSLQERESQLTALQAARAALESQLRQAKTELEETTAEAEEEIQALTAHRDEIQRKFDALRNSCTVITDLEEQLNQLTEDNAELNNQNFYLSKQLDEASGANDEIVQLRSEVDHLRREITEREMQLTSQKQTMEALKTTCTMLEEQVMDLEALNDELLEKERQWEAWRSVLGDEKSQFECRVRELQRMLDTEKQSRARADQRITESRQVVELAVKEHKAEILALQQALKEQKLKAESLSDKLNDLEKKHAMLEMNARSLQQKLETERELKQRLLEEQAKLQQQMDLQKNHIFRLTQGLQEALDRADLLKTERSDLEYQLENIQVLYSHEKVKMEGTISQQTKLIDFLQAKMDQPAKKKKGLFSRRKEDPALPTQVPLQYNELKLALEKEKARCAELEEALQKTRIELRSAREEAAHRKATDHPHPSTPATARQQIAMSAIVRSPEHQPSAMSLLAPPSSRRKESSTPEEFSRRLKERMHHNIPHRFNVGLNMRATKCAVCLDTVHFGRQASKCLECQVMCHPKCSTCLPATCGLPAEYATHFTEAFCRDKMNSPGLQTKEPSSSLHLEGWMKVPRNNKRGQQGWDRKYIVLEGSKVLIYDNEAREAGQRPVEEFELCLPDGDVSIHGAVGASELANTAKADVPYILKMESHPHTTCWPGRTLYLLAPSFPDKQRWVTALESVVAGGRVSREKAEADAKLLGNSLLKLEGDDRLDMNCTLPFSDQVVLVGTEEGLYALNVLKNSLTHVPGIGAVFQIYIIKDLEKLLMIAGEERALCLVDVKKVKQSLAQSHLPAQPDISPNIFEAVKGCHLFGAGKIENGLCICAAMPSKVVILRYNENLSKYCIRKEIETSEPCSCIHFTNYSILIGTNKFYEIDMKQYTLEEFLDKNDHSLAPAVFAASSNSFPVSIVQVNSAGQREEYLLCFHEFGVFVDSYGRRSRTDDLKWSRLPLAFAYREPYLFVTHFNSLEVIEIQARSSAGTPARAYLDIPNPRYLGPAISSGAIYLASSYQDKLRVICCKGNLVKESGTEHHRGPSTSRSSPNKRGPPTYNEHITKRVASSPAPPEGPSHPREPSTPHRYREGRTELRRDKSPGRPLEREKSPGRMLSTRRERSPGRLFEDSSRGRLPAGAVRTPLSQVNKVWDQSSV
Sequence of SgK110 (P0C264 whole entry): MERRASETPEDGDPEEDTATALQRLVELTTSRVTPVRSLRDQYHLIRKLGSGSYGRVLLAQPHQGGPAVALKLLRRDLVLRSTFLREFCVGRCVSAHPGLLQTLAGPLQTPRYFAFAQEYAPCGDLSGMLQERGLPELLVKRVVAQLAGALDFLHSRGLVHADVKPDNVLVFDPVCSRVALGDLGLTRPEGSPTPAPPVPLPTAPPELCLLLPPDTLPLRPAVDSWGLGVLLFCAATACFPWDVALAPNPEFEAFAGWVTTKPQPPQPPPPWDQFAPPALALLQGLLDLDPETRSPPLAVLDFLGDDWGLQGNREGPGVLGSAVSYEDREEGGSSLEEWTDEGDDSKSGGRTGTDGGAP
Sequence of RSK3(Kin.Dom.2-C-terminal) (Q15349 415-672): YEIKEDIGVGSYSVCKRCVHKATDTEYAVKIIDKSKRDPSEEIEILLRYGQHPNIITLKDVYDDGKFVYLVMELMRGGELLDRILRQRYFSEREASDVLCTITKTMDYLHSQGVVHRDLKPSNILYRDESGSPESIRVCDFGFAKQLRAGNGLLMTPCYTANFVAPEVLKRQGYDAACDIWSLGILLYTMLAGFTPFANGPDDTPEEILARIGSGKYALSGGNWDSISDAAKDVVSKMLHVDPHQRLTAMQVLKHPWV
Sequence of PIK3CA(Q546K) (P42336 whole entry Q546K): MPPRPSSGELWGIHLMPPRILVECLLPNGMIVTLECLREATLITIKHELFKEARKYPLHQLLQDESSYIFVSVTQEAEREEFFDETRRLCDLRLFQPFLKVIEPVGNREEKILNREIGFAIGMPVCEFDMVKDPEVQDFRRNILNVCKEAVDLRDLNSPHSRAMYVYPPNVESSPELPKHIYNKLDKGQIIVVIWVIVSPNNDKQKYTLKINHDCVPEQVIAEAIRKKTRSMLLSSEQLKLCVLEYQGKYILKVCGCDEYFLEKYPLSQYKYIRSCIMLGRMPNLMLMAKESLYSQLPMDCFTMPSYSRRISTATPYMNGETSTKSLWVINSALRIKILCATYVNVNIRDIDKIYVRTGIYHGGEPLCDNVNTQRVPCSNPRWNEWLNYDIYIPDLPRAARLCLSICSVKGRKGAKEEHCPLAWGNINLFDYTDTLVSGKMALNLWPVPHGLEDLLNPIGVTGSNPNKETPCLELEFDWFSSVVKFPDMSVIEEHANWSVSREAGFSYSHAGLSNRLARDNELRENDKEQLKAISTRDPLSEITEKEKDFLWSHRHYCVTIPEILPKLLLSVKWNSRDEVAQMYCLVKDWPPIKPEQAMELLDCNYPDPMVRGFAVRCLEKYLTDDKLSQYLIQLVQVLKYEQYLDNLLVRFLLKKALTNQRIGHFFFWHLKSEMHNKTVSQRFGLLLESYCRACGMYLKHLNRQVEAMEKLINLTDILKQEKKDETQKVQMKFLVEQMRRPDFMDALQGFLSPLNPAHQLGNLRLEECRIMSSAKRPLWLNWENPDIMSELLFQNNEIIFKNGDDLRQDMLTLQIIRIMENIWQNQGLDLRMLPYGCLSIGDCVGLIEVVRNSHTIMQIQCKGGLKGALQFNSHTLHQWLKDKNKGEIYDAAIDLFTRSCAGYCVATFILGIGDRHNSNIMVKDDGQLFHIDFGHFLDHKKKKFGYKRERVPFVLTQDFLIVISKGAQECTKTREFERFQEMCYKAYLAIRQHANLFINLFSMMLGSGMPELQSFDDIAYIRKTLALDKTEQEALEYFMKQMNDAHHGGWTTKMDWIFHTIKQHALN
Sequence of NEK9 (Q8TD19 whole entry): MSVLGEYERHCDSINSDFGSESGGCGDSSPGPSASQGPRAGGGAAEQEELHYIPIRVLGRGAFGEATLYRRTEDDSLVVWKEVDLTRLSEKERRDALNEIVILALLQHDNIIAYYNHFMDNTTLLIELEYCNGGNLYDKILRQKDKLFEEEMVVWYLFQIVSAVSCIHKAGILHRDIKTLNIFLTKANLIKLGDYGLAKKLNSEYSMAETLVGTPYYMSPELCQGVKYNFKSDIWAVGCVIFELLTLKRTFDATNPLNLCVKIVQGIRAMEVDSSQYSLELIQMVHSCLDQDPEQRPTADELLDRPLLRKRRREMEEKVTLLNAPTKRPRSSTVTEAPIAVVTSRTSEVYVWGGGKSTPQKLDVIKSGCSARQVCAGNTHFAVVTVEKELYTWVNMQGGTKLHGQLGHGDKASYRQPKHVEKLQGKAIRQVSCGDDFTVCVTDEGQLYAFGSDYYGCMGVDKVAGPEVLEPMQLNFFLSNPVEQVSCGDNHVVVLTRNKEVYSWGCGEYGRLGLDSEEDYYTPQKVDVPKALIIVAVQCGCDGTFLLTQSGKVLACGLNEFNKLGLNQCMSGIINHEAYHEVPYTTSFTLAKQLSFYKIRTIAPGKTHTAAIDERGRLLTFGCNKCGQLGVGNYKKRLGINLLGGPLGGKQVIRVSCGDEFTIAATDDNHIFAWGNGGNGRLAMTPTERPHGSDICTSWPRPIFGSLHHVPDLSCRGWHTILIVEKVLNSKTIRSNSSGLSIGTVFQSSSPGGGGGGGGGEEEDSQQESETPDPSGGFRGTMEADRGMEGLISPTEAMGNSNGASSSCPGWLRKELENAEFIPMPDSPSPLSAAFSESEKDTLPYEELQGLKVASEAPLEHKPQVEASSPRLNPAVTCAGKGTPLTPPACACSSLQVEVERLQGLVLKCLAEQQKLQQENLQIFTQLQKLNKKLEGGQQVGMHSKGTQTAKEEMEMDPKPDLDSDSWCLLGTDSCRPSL
Sequence of DRAK2 (O94768 whole entry): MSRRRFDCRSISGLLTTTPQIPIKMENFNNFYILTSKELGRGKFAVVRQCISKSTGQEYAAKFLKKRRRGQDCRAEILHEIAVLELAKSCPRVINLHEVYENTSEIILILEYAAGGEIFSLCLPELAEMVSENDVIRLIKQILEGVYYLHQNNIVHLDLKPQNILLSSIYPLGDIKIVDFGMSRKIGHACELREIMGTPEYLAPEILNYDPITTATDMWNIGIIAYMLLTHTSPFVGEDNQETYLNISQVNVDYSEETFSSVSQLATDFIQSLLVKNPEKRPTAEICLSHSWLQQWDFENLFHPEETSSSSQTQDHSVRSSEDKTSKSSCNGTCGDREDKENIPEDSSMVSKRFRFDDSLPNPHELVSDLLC

| Structure (SMILES) | remaining binding at 1 µM [1] [%] | remaining binding at 1 µM [2] [%] | remaining binding at 1 µM [3] [%] | remaining binding at 1 µM [4] [%] | remaining binding at 1 µM [5] [%] | remaining binding at 1 µM [6] [%] | remaining binding at 1 µM [7] [%] | remaining binding at 1 µM [8] [%] | remaining binding at 1 µM [9] [%] | remaining binding at 1 µM [10] [%] | remaining binding at 1 µM [11] [%] | % control [12] [%] | remaining binding at 1 µM [13] [%] | remaining binding at 1 µM [14] [%] | remaining binding at 1 µM [15] [%] | remaining binding at 1 µM [16] [%] | remaining binding at 1 µM [17] [%] | remaining binding at 1 µM [18] [%] | remaining binding at 1 µM [19] [%] | remaining binding at 1 µM [20] [%] | also measured |
| --- | --- | --- | --- | --- | --- | --- | --- | --- | --- | --- | --- | --- | --- | --- | --- | --- | --- | --- | --- | --- | --- |
| CCNc1cc(Nc2ccc(C(=O)N3CCC(N4CCOCC4)CC3)cc2OC)nc2[nH]cc(C#N)c12 [Example 18, 4-(ethylamino)-6-((2-methoxy-4-(4-morpholinopiperidine-1-carbonyl)phenyl)amino)-1H-pyrrolo[2,3-b]pyridine-3-carbonitrile] | 73 | 85 | 88 | 78 | 100 | 7.1 | 16 | 93 | 60 | 12 | 89 | 92 | 17 | 85 | 62 | 88 | 26 | 97 | 77 | 62 | remaining binding at 1 µM [21]: 100%; remaining binding at 1 µM [22]: 92%; remaining binding at 1 µM [23]: 27%; remaining binding at 1 µM [24]: 67%; remaining binding at 1 µM [25]: 93%; remaining binding at 1 µM [26]: 100%; remaining binding at 1 µM [27]: 71%; remaining binding at 1 µM [28]: 98%; remaining binding at 1 µM [29]: 91%; remaining binding at 1 µM [30]: 92%; remaining binding at 1 µM [31]: 86%; remaining binding at 1 µM [32]: 84%; remaining binding at 1 µM [33]: 100%; remaining binding at 1 µM [34]: 90%; remaining binding at 1 µM [35]: 71%; remaining binding at 1 µM [36]: 98%; remaining binding at 1 µM [37]: 96%; remaining binding at 1 µM [38]: 100%; remaining binding at 1 µM [39]: 88% |
| CCNc1cc(Nc2ccc(C(=O)N3CCC(N4CCOCC4)CC3)cc2OC)nc2[nH]cc(C(F)(F)F)c12 [Example 57, (4-((4-(ethylamino)-3-(trifluoromethyl)-1H-pyrrolo[2,3-b]pyridin-6-yl)amino)-3-methoxyphenyl) (4-morpholinopiperidin-1-yl)methanone] | 100 | 86 | 82 | 94 | 78 | 89 | 71 | 100 | 64 | 82 | 95 | 79 | 16 | 96 | 67 | 83 | 100 | 84 | 100 | 92 | remaining binding at 1 µM [21]: 100%; remaining binding at 1 µM [22]: 95%; remaining binding at 1 µM [23]: 69%; remaining binding at 1 µM [24]: 100%; remaining binding at 1 µM [25]: 100%; remaining binding at 1 µM [26]: 96%; remaining binding at 1 µM [27]: 95%; remaining binding at 1 µM [28]: 98%; remaining binding at 1 µM [29]: 89%; remaining binding at 1 µM [30]: 97%; remaining binding at 1 µM [31]: 88%; remaining binding at 1 µM [32]: 88%; remaining binding at 1 µM [33]: 95%; remaining binding at 1 µM [34]: 79%; remaining binding at 1 µM [35]: 66%; remaining binding at 1 µM [36]: 96%; remaining binding at 1 µM [37]: 90%; remaining binding at 1 µM [38]: 90%; remaining binding at 1 µM [39]: 93% |
